Here are results for 89 compounds from a melting point compilation (Tetko et al.; mined from patent text by program, amines drawn as free bases though some values may be those of a salt).

Each structure is given as a SMILES string.

For the compound `CC(=NO)C12CCCC(C1)C1CCC2C1` (centres undefined), the melting point (usually the temperature of the solid-liquid transition) is 157 to 158 °C.
The figure for `CC12CCC(C1)C1(C)Oc3ccc(C4(c5ccc(C(=O)O)cc5)OCCO4)cc3C21C` (centres undefined) is 234 to 236 °C.
Regarding `Oc1ccccc1C=NNc1nc(C(Cl)(Cl)Cl)ns1`, the melting point fell in the range of 204 to 205 °C.
As to `COc1ccc(C(C)(C)C)cc1NC(=O)Nc1ccc(-c2cnc3c(c2)NC(=O)CO3)c2ccccc12`, the melting point is over 200 °C.
The figure for `CCOC(=O)C(C)c1ccc2oc(Nc3ccc(Cl)cc3)nc2c1` (centres undefined) is 135 to 137 °C.
The same measure for `COc1cc2sc(C(=O)O)cc2c(Cl)c1OC`: 267 to 270 °C.
Take `CCCCCCCCCCCCCCCCSCC(CN=[N+]=[N-])NC(=O)OC(C)(C)C` (centres undefined): the melting point lay within 63 to 64 °C.
The same measure for `COc1c(C)c(CO)c(OC)c2ccccc12`: 116 to 117 °C; for `CC(CF)(CF)C1=NC(c2ccc(C(C)(C)C)cc2)CO1` (centres undefined): 62 to 63 °C.
The figure for `c1ccc(CN2CCN(Cc3n[nH]c4c3CCc3ccccc3-4)CC2)cc1` is 158 to 160 °C.
The figure for `O=C(OCCc1c(-c2ccccc2)n2nnnc2n2ncnc12)C12CC3CC(CC(C3)C1)C2` is 129 to 130 °C.
`Cn1c(=O)nc(-c2ccccc2Cl)c2ccsc21` returned a melting point of 225 to 226 °C.
In turn, `CCCCCCCCOc1ccc(OCc2ccc(C(=O)OC3CCC(CCC)(CCC)OC3=O)cc2)cc1` (centres undefined) came in with a melting point of 65 °C.
`COc1ccc(C(=O)Nc2ccc3oc4c(c3c2)CCCC4)cc1` registered a melting point of 197 to 198 °C.
The same measure for `COCCn1cc2c(=O)[nH]c(=O)[nH]c2n1`: 295 to 302 °C.
With `N#Cn1nc(-c2ccccc2)c(=O)cc1I`, the melting point lay in the range of 135 to 137 °C.
As to `COC(=O)c1cc(N)n(C)n1`, the melting point is 101 to 102 °C.
The same measure for `CC(CNc1ccc(C(=O)O)cc1)Oc1ccc(F)cc1` (centres undefined): 171 to 172 °C; for `CC#CCOc1cc(/C=C/C(=O)Nc2cc(Cl)ccc2C(=O)NC)ccc1OC`: 172 to 173 °C; for `O=[N+]([O-])c1cccnc1Sc1ncccn1`: 122 to 124 °C.
Turning to `COc1ccc(C(C)(C)C)cc1C(=O)c1cc([N+](=O)[O-])ccc1Cl`, the melting point fell in the range of 136 to 139 °C.
The figure for `C#Cc1cn(C2CC(N=[N+]=[N-])C(COC(c3ccccc3)(c3ccccc3)c3ccccc3)O2)c(=O)[nH]c1=O` (centres undefined) is 110 °C; for `COc1ccc(-c2snnc2SC)cc1` it is 60.5 to 61 °C; for `CC(C)c1nc(Cl)c([N+](=O)[O-])c(Cl)n1` it is 32 °C.
The figure for `COCC(O)COc1ccc2cc(S(N)(=O)=O)sc2c1` (centres undefined) is 128 to 129 °C; for `COc1cc2c(cc1C(F)(F)F)N(C(=O)Nc1ccc(C)c(-c3cnccc3C)c1)CC2` it is 138 to 140 °C; for `CC(=O)NNc1nc(O)nc(-c2ccc(Cl)cc2)n1` it is 250 °C.
The same measure for `CCCn1nc2c(N)nc3ccccc3c2c1CCCCC(=N)NO`: 222 to 224 °C; for `CCOC(=O)c1cc(-c2ccc(Cl)cc2)c(Cl)nc1NC=O`: 184 to 187 °C.
Consider `c1ccc(C(c2ccccc2)N2CCN(CCCCCCNc3ccc4ncnn4n3)CC2)cc1`, for which the melting point was 130 to 132 °C.
Compound `COC(=O)c1cn(-c2ccc(C3=NOC(NC(C)=O)C3)cc2F)nn1` (centres undefined) returned a melting point of 221 °C.
The same measure for `O=c1[nH]c2cccnc2o1`: 252 °C; for `Cc1nc(N2CCN(Cc3ccccc3)C2=N)sc1C(=O)NCc1ccccc1`: 125 to 126 °C.
The figure for `CC(C)c1cc(C=CC(=O)Nc2cccc(C(=O)O)c2)oc1C(C)C` is 220 to 222 °C; for `CCC(=O)N[C@@H](CC)c1nc2c(C(F)(F)F)cccc2c(O)c1C(=O)Nc1nccs1` it is over 275 °C.
The figure for `COC(=O)c1[nH]c(=O)n(C(=O)NCCCN2CCN(c3ccccc3OC)CC2)c1-c1ccc(F)c(F)c1` is 122 to 124 °C; for `CC(=NOCCOc1ccc(CC2SC(=O)NC2=O)cc1)c1ccc(OCc2ccccc2)nc1` (centres undefined) it is 160 to 161 °C; for `CCOC(=O)N1CCc2nc3ccccc3c(N3CCCC3)c2CC1` it is 111 °C.
Take `COc1cc(OC)c2c(=O)[nH]c(-c3ccc(OC)c(-c4ccc(S(C)=O)cc4)n3)nc2c1` (centres undefined): the melting point is 266 to 267 °C.
The same measure for `COc1cc(O)c(C=O)cc1Br`: 63 to 64 °C.
The figure for `COc1ccc2cc(C(=O)c3ccc(C)c(C)c3)oc2c1` is 95 to 97 °C.
Consider `COc1ccc(/C=C/c2cnccn2)cc1OC1CCCC1`, for which the melting point lay within 81 to 83 °C.
`C=C1c2c(C)c(N3CCN(c4ccc(OC)cc4)CC3)c(C)c(C)c2OC1(C)C` registered a melting point of 134 to 136 °C.
The same measure for `COCc1ccc(-c2ncccc2S(=O)(=O)Nc2ncc(C)nc2OC)cc1`: 129 to 130 °C; for `CCN(CC)C(=S)SCc1ccccc1CSC(=S)N(CC)CC`: 78 to 80 °C; for `CCOC(=O)c1ccc(NCCCc2ccc(Cl)cc2)cc1`: 122 to 124 °C.
The figure for `CCCC1CC(O)N(C(C)=O)C1(C(=O)OCC)C(=O)OCC` (centres undefined) is 105 to 106 °C.
The same measure for `CCCOCCOc1ccc(-c2ccc3c(c2)C=C(C(=O)O)CCN3Cc2ccccc2)cc1`: 139 to 142 °C; for `CCOC(=O)/C=C/c1ccc(C=Cc2nc(-c3ccco3)oc2C)cc1`: 123 to 124 °C; for `CC(C)=C1OC(=O)N(c2ccc(C)cc2)C1=O`: 136 °C.
Compound `COc1cc2c(cc1Nc1ncc(Cl)c(N[C@H]3[C@@H](C(N)=O)[C@@H]4C=C[C@H]3C4)n1)NC(=O)CN(CC1CC1)C2` yielded a melting point of 152 °C.
The figure for `O=[N+]([O-])c1cccc2c1S(=O)(=O)C=C2` is 195 to 197 °C; for `CC(C)OC(=O)C(C(=O)OC(C)C)=C1SC2C(S1)N(C)CCN2C` (centres undefined) it is 93.6 °C; for `c1ccc(N2c3ccccc3C3CN(CC45CC6CC(CC(C6)C4)C5)CCC32)cc1` (single isomer, unassigned; (+)) it is 117 to 119 °C.
Compound `CCOC(=O)c1c(C)cc2c(c1C)c(=O)n(-c1ccccc1Cl)c(=O)n2CC(=O)N1CCN(C)CC1` came in with a melting point of 64 to 65 °C.
The figure for `Cc1cccc(C)c1NC(=O)CSc1cc(C(C)(C)C)c(O)c(C(C)(C)C)c1` is 138 °C; for `O=C(OC1C2OCC(O2)C(OCc2ccccc2)C1OCc1ccccc1)c1ccccc1` (centres undefined) it is 111 to 113 °C.
The same measure for `CC1=C(CC#N)CCc2ccccc21`: 48 to 49 °C; for `CCCCOc1cc(CCS(=O)(=O)NC(=O)OCC(C)C)n(Cc2ccc(Cl)cc2Cl)n1`: 114 to 116 °C; for `CC(C)(C)CNC(=NC#N)Nc1cccnc1`: 214 to 215 °C.
The figure for `CCOCc1nc2c(N)nc3cc(OCCOCc4ccccc4)ccc3c2n1CC(C)(C)O` is 131 to 132 °C.
For the compound `CC(C)c1ccc2c(c1)c(Sc1nc3cc(Cl)ccc3s1)c(CC(C)(C)C(=O)O)n2Cc1ccc(Cl)cc1`, the melting point lay in the range of 154 to 156 °C.
The same measure for `Nc1cc2c(cc1Oc1ccc(F)cc1)CCC2`: 123 °C.
The figure for `O=[N+]([O-])c1ccc(F)c(-c2ccncc2)c1F` is 110 to 112 °C.
The same measure for `CCNc1nc(C)c(-c2ccncc2)s1`: 129 to 131 °C.
In the case of `COc1cc2c(cc1-c1c(C)nn(C)c1C)-c1c(-c3cccs3)c3c(n1CC2)C(=O)N(C(C)C)CCNC3`, the melting point was in the range of 250 to 252 °C.
The figure for `CCc1c([N+](=O)[O-])c(C(N)=O)nn1C[C@@H]1CCCN1C(=O)OC(C)(C)C` is 68 to 75 °C; for `Brc1cnc2c(c1)ncn2-c1cccc(-n2ccnc2)c1` it is 236 to 238 °C; for `CN(C(=O)c1ccc(Cn2cnc3ccccc32)cc1)[C@@H]1CCNC1` it is 150 to 152 °C.
The same measure for `N#Cc1cc(-n2nnnc2C(F)(F)F)ccc1OC(F)(F)F`: 65 to 67 °C.
The compound `CCOC(=O)c1c(-c2ccccc2)nn2c1-c1ccccc1CC2` gave a melting point of 84 to 85 °C.
The same measure for `ClC1=Nc2cc(Cl)ccc2Cn2cccc21`: 129 to 135 °C; for `CC1(C(=O)O)CC1(F)F` (centres undefined): 59 to 61 °C.
The same measure for `OCc1cccn1CCN1CCC(=C2c3ccccc3CCn3ccnc32)CC1`: 147 °C.
The same measure for `O=C(O)c1cc(Cl)c(Cl)cc1C(=O)Nc1cccc(-c2ccnc3c(C(=O)c4cccs4)cnn23)c1`: over 270 °C; for `Nc1c2c(nc3cc(F)ccc13)CCCC2O` (centres undefined): 203 to 206 °C.
As for `CC(C)(C)c1cc(CN(c2cccnc2)S(=O)(=O)c2cccc([N+](=O)[O-])c2)cc(C(C)(C)C)c1O`, the melting point was in the range of 99 to 107 °C.
The figure for `CCCN(CCC)CC1CCCCN1CCNC(=O)N1c2ccccc2NC(=O)c2cccnc21` (centres undefined) is 149 to 151 °C; for `Clc1ccccc1NC(c1ccccc1)c1ccccc1` it is 98 °C; for `O=C(O)c1ccc(-c2ccc3nnn(Cc4ccc5ncccc5c4)c3n2)cc1` it is 245 to 247 °C.
`CC(=O)NC[C@H]1CN(c2ccc(-c3nsc(C(N)=O)n3)c(F)c2)C(=O)O1`: the melting point lay within 238 to 240 °C.
The figure for `COC(=O)C(=O)c1ccc(OCCCc2ccc3ccccc3c2)cc1` is 97 to 99 °C; for `COC(=O)c1ccccc1-c1cnc(-c2cccc(C(F)(F)F)c2)o1` it is 84.5 to 86 °C.
The figure for `Fc1ccc2c(c1)N=C(N1CCNCC1)c1sccc1N2` is 165 to 167 °C; for `CCOC(=O)c1c(N2CCC(N(C)C)CC2)c2cc(C)ccc2n(Cc2ccccc2)c1=O` it is over 60 °C.
The figure for `CCCC(CCC)n1c(CC)nc2c1C(=O)N(C)C(CC)N2c1ccc(Cl)cc1Cl` (centres undefined) is 116 to 118 °C; for `COc1cccc(C2=C(CO)C(=O)N(C)CC2)c1` it is 81 to 83 °C; for `CC1=CCc2cccc(OCC3CN(C(C)C)CCO3)c21` (centres undefined) it is 114 to 116 °C.
For `COc1cc2c(c3c1OC(C)(C)C3)C(c1cccc(Nc3ccccc3)c1)=NC(C)(C)C2`, the melting point was in the range of 87 to 88 °C.
